Patent US11739074B2, “Ras inhibitors” (Revolution Medicines, Inc., priority 2019, dated 2023)
Read-outs that look alike come from different tables or passages of the source.

Key:
NRAS Q61K = biological target: T1, NRAS Q61K (Homo sapiens, UniProt P01111+P62937, Q61K); assay: Ras-Raf disruption/FRET/MOA assay, NRAS Q61K; assay type: biochemical; details: NRAS Q61K; read-out: NRAS Q61K FRET data IC50
T1 construct: His6
Excerpt: (§1) Disruption of B-Raf Ras-Binding Domain (BRAF^RBD) Interaction with K-Ras by Compounds of the Invention (Also Called a FRET Assay or an MOA Assay)
(§2) Note—The following protocol describes a procedure for monitoring disruption of K-Ras G12C (GMP-PNP) binding to BRAF^RBD by a compound of the invention. This protocol may also be executed substituting other Ras proteins or nucleotides, such as K-Ras G12D and K-Ras G13D.
(§3) The purpose of this biochemical assay was to measure the ability of test compounds to facilitate ternary complex formation between a nucleotide-loaded K-Ras isoform and Cyclophilin A; the resulting ternary complex disrupts binding to a BRAF^RBD construct, inhibiting K-Ras signaling through a RAF effector.
(§4) In assay buffer containing 25 mM HEPES pH 7.3, 0.002% Tween20, 0.1% BSA, 100 mM NaCl and 5 mM MgCl2, tagless Cyclophilin A, His6-K-Ras-GMPPNP, and GST-BRAF^RBD were combined in a 384-well assay plate at final concentrations of 25 μM, 12.5 nM, and 50 nM, respectively. Compound was present in plate wells as a 10-point 3-fold dilution series starting at a final concentration of 30 μM. After incubation at 25° C. for 3 hours, a mixture of anti-His Eu-W1024 and anti-GST allophycocyanin was then added to assay sample wells at final concentrations of 10 nM and 50 nM, respectively, and the reaction incubated for an additional 1.5 hours. […] Compounds that facilitate disruption of a K-Ras:RAF complex were identified as those eliciting a decrease in the TR-FRET ratio relative to DMSO control wells.

KRAS G13D = KRAS G13D (Homo sapiens, UniProt P01116+P62937, G13D); assay: Ras-Raf disruption/FRET/MOA assay, KRAS G13D; assay type: biochemical; details: disruption of BRAF RBD binding, with Cyclophilin A; read-out: KRAS G13D FRET IC50
Chain of KRAS G13D (P01116 1-169 isoform P01116-2 G13D limits assumed): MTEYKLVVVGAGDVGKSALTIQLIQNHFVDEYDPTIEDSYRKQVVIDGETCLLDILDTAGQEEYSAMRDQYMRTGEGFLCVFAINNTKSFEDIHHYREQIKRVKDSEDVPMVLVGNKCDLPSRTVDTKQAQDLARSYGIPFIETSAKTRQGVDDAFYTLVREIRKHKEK
Chain of KRAS G13D (P62937 whole entry): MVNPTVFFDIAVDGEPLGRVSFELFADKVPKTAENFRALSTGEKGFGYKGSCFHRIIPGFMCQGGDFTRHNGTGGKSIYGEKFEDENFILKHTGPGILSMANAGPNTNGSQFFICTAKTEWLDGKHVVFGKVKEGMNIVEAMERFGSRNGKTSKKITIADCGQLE
Summary of the method: (§5)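 His6-K-Ras-GMPPNP (12.5 nM) was incubated with GST-BRAF RBD (50 nM), tagless cyclophilin A (25 µM) and compound (10-point 3-fold series from 30 µM) in HEPES pH 7.3 buffer for 3 h at 25 °C. Anti-His Eu/anti-GST APC were then added for 1.5 h; disruption was read as a drop in TR-FRET ratio versus DMSO.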

KRAS G12D = KRAS G12D (Homo sapiens, UniProt P01116+P62937, G12D); assay: Ras-Raf disruption/FRET/MOA assay, KRAS G12D; assay type: biochemical; details: disruption of BRAF RBD binding, with Cyclophilin A; read-out: KRAS G12D FRET IC50
Chain of KRAS G12D (P01116 1-169 isoform P01116-2 G12D limits assumed): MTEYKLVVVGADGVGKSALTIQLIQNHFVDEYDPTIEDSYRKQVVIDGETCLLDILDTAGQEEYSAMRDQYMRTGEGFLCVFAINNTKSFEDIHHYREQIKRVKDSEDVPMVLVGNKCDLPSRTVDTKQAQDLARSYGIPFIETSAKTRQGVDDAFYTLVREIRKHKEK
Chain of KRAS G12D (P62937 whole entry): as the sequence (P62937 whole entry) above
Summary of the method: as §5

NRAS WT = biological target: T2, NRAS WT (Homo sapiens, UniProt P01111+P62937); assay: Ras-Raf disruption/FRET/MOA assay, NRAS WT; assay type: biochemical; details: NRAS WT; read-out: NRAS WT FRET data IC50
T2 construct: His6
T2 sequence (P01111 whole entry): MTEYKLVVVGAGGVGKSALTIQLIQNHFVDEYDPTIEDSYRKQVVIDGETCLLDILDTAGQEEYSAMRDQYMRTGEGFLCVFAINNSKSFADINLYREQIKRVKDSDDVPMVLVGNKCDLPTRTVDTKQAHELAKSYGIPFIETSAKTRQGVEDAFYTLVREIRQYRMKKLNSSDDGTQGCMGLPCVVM
T2 sequence (P62937 whole entry): as the sequence (P62937 whole entry) above
Excerpt: as §1, §2, §3, §4

KRAS WT = KRAS WT (Homo sapiens, UniProt P01116+P62937); assay: Ras-Raf disruption/FRET/MOA assay, KRAS WT; assay type: biochemical; details: disruption of BRAF RBD binding, with Cyclophilin A; read-out: KRAS WT FRET IC50
Chain of KRAS WT (P01116 1-169 isoform P01116-2 limits assumed): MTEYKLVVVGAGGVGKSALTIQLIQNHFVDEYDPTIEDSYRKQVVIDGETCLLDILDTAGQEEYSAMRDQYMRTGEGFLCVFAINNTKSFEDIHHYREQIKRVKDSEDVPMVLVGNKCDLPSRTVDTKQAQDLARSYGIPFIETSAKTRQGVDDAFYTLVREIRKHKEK
Chain of KRAS WT (P62937 whole entry): as the sequence (P62937 whole entry) above
Summary of the method: as §5

AsPC-1 (K-Ras G12D) [1] = assay: Potency assay: pERK in AsPC-1 cells; assay type: cell-based; details: Homo sapiens
NCI-H358 (K-Ras G12C) = assay: CellTiter-Glo cell viability assay, H358; assay type: cell-based; details: Homo sapiens, NCI-H358, 120 h, NCI-H358, K-Ras G12C, 5-day treatment; read-out: H358 Cell Viability IC50
Summary of the method: (§6)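 Luminescence from CellTiter-Glo serves as the viability read-out after cells are treated with compound for 5 days. Each well's signal is divided by the DMSO average and multiplied by 100, and curves are fitted by four-parameter logistic regression.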

KRAS G12S = KRAS G12S (Homo sapiens, UniProt P01116+P62937, G12S); assay: Ras-Raf disruption/FRET/MOA assay, KRAS G12S; assay type: biochemical; details: disruption of BRAF RBD binding, with Cyclophilin A; read-out: KRAS G12S FRET IC50
Chain of KRAS G12S (P01116 1-169 isoform P01116-2 G12S limits assumed): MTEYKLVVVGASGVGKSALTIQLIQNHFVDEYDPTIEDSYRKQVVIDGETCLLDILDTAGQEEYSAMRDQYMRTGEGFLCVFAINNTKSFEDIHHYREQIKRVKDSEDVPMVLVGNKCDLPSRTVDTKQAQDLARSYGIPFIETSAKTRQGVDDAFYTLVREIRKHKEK
Chain of KRAS G12S (P62937 whole entry): as the sequence (P62937 whole entry) above
Summary of the method: as §5

KRAS G12C = KRAS G12C (Homo sapiens, UniProt P01116+P62937, G12C); assay: Ras-Raf disruption/FRET/MOA assay, KRAS G12C; assay type: biochemical; details: disruption of BRAF RBD binding, with Cyclophilin A; read-out: KRAS G12C FRET IC50
Chain of KRAS G12C (P01116 1-169 isoform P01116-2 G12C limits assumed): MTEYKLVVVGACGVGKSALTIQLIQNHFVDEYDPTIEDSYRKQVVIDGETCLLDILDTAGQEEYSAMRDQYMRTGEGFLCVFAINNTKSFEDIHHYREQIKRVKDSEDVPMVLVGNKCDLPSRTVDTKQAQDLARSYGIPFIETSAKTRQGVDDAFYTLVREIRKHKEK
Chain of KRAS G12C (P62937 whole entry): as the sequence (P62937 whole entry) above
Summary of the method: as §5

KRAS G12V = KRAS G12V (Homo sapiens, UniProt P01116+P62937, G12V); assay: Ras-Raf disruption/FRET/MOA assay, KRAS G12V; assay type: biochemical; details: disruption of BRAF RBD binding, with Cyclophilin A; read-out: KRAS G12V FRET IC50
Chain of KRAS G12V (P01116 1-169 isoform P01116-2 G12V limits assumed): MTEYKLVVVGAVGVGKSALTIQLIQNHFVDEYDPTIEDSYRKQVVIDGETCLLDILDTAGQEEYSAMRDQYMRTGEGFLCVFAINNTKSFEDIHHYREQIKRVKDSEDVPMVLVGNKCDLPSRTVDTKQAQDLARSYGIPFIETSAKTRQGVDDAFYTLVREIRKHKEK
Chain of KRAS G12V (P62937 whole entry): as the sequence (P62937 whole entry) above
Summary of the method: as §5

NRAS Q61R = biological target: T3, NRAS Q61R (Homo sapiens, UniProt P01111+P62937, Q61R); assay: Ras-Raf disruption/FRET/MOA assay, NRAS Q61R; assay type: biochemical; details: NRAS Q61R; read-out: NRAS Q61R FRET data IC50
T3 construct: His6
T3 sequence (P01111 whole entry Q61R): as the sequence (P01111 whole entry) above, with Q61R counted along it
T3 sequence (P62937 whole entry): as the sequence (P62937 whole entry) above
Excerpt: as §1, §2, §3, §4

NRAS G12C = biological target: T4, NRAS G12C (Homo sapiens, UniProt P01111+P62937, G12C); assay: Ras-Raf disruption/FRET/MOA assay, NRAS G12C; assay type: biochemical; details: NRAS G12C; read-out: NRAS G12C FRET data IC50
T4 construct: His6
T4 sequence (P01111 whole entry G12C): as the sequence (P01111 whole entry) above, with G12C counted along it
T4 sequence (P62937 whole entry): as the sequence (P62937 whole entry) above
Summary of the method: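 Disruption of Ras:RAF binding was read as a drop in TR-FRET ratio versus DMSO controls. The buffer was 25 mM HEPES pH 7.3, 0.002% Tween20, 0.1% BSA, 100 mM NaCl and 5 mM MgCl2. Compounds were tested as a 10-point 3-fold dilution series from 30 μM. Detection used 10 nM anti-His Eu-W1024 and 50 nM anti-GST allophycocyanin.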

KRAS G13C = KRAS G13C (Homo sapiens, UniProt P01116+P62937, G13C); assay: Ras-Raf disruption/FRET/MOA assay, KRAS G13C; assay type: biochemical; details: disruption of BRAF RBD binding, with Cyclophilin A; read-out: KRAS G13C FRET IC50
Chain of KRAS G13C (P01116 1-169 isoform P01116-2 G13C limits assumed): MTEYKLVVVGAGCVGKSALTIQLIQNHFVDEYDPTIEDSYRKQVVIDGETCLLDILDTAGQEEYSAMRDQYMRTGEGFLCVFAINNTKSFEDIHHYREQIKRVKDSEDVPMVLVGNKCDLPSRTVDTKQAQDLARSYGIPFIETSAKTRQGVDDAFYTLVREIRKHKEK
Chain of KRAS G13C (P62937 whole entry): as the sequence (P62937 whole entry) above
Summary of the method: as §5

AsPC-1 (K-Ras G12D) [2] = assay: CellTiter-Glo cell viability assay, AsPC-1; assay type: cell-based; details: Homo sapiens, ASPC1, 120 h, read-out: AsPC-1 Cell Viability IC50
Summary of the method: as §6

KRAS Q61H = KRAS Q61H (Homo sapiens, UniProt P01116+P62937, Q61H); assay: Ras-Raf disruption/FRET/MOA assay, KRAS Q61H; assay type: biochemical; details: KRAS Q61H; read-out: KRAS Q61H FRET data IC50
Chain of KRAS Q61H (P01116 1-169 isoform P01116-2 Q61H limits assumed): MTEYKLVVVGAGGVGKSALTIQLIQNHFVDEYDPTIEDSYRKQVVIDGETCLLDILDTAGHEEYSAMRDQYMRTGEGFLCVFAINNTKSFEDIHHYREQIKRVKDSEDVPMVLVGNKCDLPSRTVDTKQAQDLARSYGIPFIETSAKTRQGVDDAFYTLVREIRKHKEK
Chain of KRAS Q61H (P62937 whole entry): as the sequence (P62937 whole entry) above
Excerpt: as §1, §2, §3, §4

[3] = ASPC1, AsPC-1 cells, K-Ras G12D, read-out: pERK EC50 (AsPC-1 KRAS G12D)
[4] = AsPC-1, K-Ras G12D, 5-day treatment

T1 sequence (P01111 whole entry Q61K): as the sequence (P01111 whole entry) above, with Q61K counted along it
T1 sequence (P62937 whole entry): as the sequence (P62937 whole entry) above

Row | SMILES | IC50 (NRAS Q61K) | IC50 (KRAS G13D) | IC50 (KRAS G12D) | IC50 (NRAS WT) | IC50 (KRAS WT) | EC50 (AsPC-1 (K-Ras G12D) [1]; [3]) | IC50 (NCI-H358 (K-Ras G12C)) | IC50 (KRAS G12S) | IC50 (KRAS G12C) | IC50 (KRAS G12V) | IC50 (NRAS Q61R) | IC50 (NRAS G12C) | IC50 (KRAS G13C) | IC50 (AsPC-1 (K-Ras G12D) [2]; [4]) | IC50 (KRAS Q61H) | EC50 (AsPC-1 (K-Ras G12D) [1]; ASPC1, read-out: pERK EC50 (AsPC-1 KRAS G12D)) | IC50 (AsPC-1 (K-Ras G12D) [2])
1 | CCn1c(-c2cccnc2[C@H](C)OC)c2c3cc(ccc31)-c1csc(n1)C[C@H](NC(=O)[C@H](C(C)C)N(C)C(=O)N1CCC[C@@H](N(C)C(=O)[C@H]3CN3)C1)C(=O)N1CCC[C@H](N1)C(=O)OCC(C)(C)C2 (atropisomer, axis not shown) [Compound 289] | 10 to 100 nM | 100 to 1000 nM | 100 to 1000 nM | 10 to 100 nM | 10 to 100 nM | < 5000 nM | 10 to 100 nM | 10 to 100 nM | 10 to 100 nM | 100 to 1000 nM | 10 to 100 nM | 10 to 100 nM | 100 to 1000 nM | 100 to 1000 nM | 10 to 100 nM |  | 
2 | CCn1c(-c2cccnc2[C@H](C)OC)c2c3cc(ccc31)-c1csc(n1)C[C@H](NC(=O)[C@H](C(C)C)N(C)C(=O)N1CCC[C@H](N(C)C(=O)[C@H]3CN3)C1)C(=O)N1CCC[C@H](N1)C(=O)OCC(C)(C)C2 (atropisomer, axis not shown) [Compound 290] | 100 to 1000 nM | 1000 to 10000 nM | 1000 to 10000 nM | 100 to 1000 nM | 100 to 1000 nM | < 5000 nM | 10 to 100 nM | 100 to 1000 nM | 100 to 1000 nM | 100 to 1000 nM | 100 to 1000 nM | 100 to 1000 nM | 100 to 1000 nM | 1000 to 10000 nM | 100 to 1000 nM |  | 
3 | CCn1c(-c2cccnc2[C@H](C)OC)c2c3cc(ccc31)-c1csc(n1)C[C@H](NC(=O)[C@H](C(C)C)N(C)C(=O)N1CCC[C@@H](N(C)C(=O)[C@@H]3CN3)C1)C(=O)N1CCC[C@H](N1)C(=O)OCC(C)(C)C2 (atropisomer, axis not shown) [Compound 291] | 10 to 100 nM | 100 to 1000 nM | 100 to 1000 nM | 10 to 100 nM | 10 to 100 nM | < 5000 nM | 10 to 100 nM | 100 to 1000 nM | 10 to 100 nM | 100 to 1000 nM | 100 to 1000 nM | 10 to 100 nM | 100 to 1000 nM | 100 to 1000 nM | 10 to 100 nM |  | 
4 | CCn1c(-c2cccnc2[C@H](C)OC)c2c3cc(ccc31)-c1csc(n1)C[C@H](NC(=O)[C@H](C1CCCC1)N1CC[C@]3(CCN(C(=O)[C@@H]4N[C@@H]4C4CC4)C3)C1=O)C(=O)N1CCC[C@H](N1)C(=O)OCC(C)(C)C2 [Compound 234] | 1000 to 10000 nM | > 10000 nM | 1000 to 10000 nM | 1000 to 10000 nM | 1000 to 10000 nM |  | 10 to 100 nM | 1000 to 10000 nM | 100 to 1000 nM | 1000 to 10000 nM | 1000 to 10000 nM | 1000 to 10000 nM | 1000 to 10000 nM | 100 to 1000 nM | 1000 to 10000 nM |  | 
5 | CCn1c(-c2cccnc2[C@H](C)OC)c2c3cc(ccc31)-c1cc(cc(C(F)F)c1)C[C@H](NC(=O)[C@H](C1CCCC1)N1CC[C@]3(CCN(C(=O)[C@@H]4N[C@@H]4C4CC4)C3)C1=O)C(=O)N1CCC[C@H](N1)C(=O)OCC(C)(C)C2 [Compound 318] | 1000 to 10000 nM | 1000 to 10000 nM | 1000 to 10000 nM | 1000 to 10000 nM | 100 to 1000 nM |  | 100 to 1000 nM | 1000 to 10000 nM | 100 to 1000 nM | 1000 to 10000 nM | 1000 to 10000 nM | 1000 to 10000 nM | 100 to 1000 nM | 100 to 1000 nM | 100 to 1000 nM |  | 
6 | CCn1c(-c2cnccc2COC)c2c3cc(ccc31)-c1cc(O)cc(c1)C[C@H](NC(=O)[C@H](C(C)C)N(C)C(=O)CN(C)C(=O)[C@H]1CN1S(C)(=O)=O)C(=O)N1CCC[C@H](N1)C(=O)OCC(C)(C)C2 (stereo partly drawn) [Example 36, (2R)—N-(2-(((2S)-1-(((6^3S,4S)-1^1-ethyl-2^5-hydroxy-1^2-(4-(methoxymethyl)pyridin-3-yl)-10,10-dimethyl-5,7-dioxo-6^1,6^2,6^3,6^4,6^5,6^6-hexahydro-1^1H-8-oxa-1(5,3)-indola-6(1,3)-pyridazina-2(1,3)-benzenacycloundecaphane-4-yl)amino)-3-methyl-1-oxobutan-2-yl)(methyl)amino)-2-oxoethyl)-N-methyl-1-(methylsulfonyl)aziridine-2-carboxamide] | 100 to 1000 nM | 100 to 1000 nM | 100 to 1000 nM | 100 to 1000 nM | 10 to 100 nM |  |  | 10 to 100 nM | 10 to 100 nM | 10 to 100 nM | 100 to 1000 nM | 10 to 100 nM | 10 to 100 nM |  | 10 to 100 nM | < 5000 nM | > 10000 nM
